This passage reports IC50 results from ChEMBL document CHEMBL4813962, “Design, synthesis and biological evaluation of sulfamoylphenyl-quinazoline derivatives as potential EGFR/CAIX dual inhibitors” (Eur J Med Chem, 2021).

pIC50: −log10 of the molar value. Bounds are passed on as bounds.

Common to all, as to type: functional, cell-based
One assay concerns A-431. In words: cells. Particulars: Homo sapiens, A-431, 72 h.
Another assay concerns NCI-H1975. The experiment in a line: Antiproliferative activity against human NCI-H1975 cells assessed as reduction in cell viability incubated for 72 hrs by MTT assay. Particulars: NCI-H1975, 72 h.
Another assay has as its system A549. The experiment in a line: cells. As to conditions: Homo sapiens, A549, 72 h.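 Also: antiproliferative effect read out as loss of cell viability by MTT assay.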

Description for A-431: Antiproliferative activity against human A-431 cells assessed as reduction in cell viability incubated for 72 hrs by MTT assay

For `NS(=O)(=O)c1ccc(CCNC(=S)Nc2ccc3ncnc(Nc4cccc(Br)c4)c3c2)cc1`, the pIC50 with A-431 is 4.76; in the assay on NCI-H1975, 4.97; with A549 it was 5.03.
In the same order, the values of `COc1ccc(Nc2ncnc3cc(OC)c(OCCCCC(=O)Nc4ccc(S(N)(=O)=O)cc4)cc23)cc1` are 4.83, 4.52 and under 4.40.
As to `COc1cc2ncnc(Nc3cccc(Cl)c3)c2cc1OCCCCC(=O)Nc1ccc(S(N)(=O)=O)cc1`, the pIC50 is 4.52 in the assay with A-431, 4.48 in the assay on NCI-H1975 and 4.95 in the assay with A549.
On the same counts, the results for `COc1cc2ncnc(Nc3cccc(Br)c3)c2cc1OCCCCC(=O)Nc1ccc(S(N)(=O)=O)cc1` are 5.01, 4.94 and 4.83.
On the same counts, the results for `COc1ccc(Nc2ncnc3cc(OC)c(OCCCCC(=O)Nc4ccc(S(N)(=O)=O)cc4)cc23)cc1OC` are 4.45, 5.03 and under 4.40.
`NS(=O)(=O)c1ccc(CCNC(=S)Nc2ccc3ncnc(Nc4ccc(F)c(Cl)c4)c3c2)cc1`: the pIC50 in the assay on A-431 was 4.78; in the assay on NCI-H1975 it was 4.94; in the assay with A549, 5.38.
On to `COc1cc2ncnc(Nc3cc(F)c(F)c(F)c3)c2cc1OCCCCC(=O)Nc1ccc(S(N)(=O)=O)cc1`, for which the pIC50 in the assay on A-431 was 4.63; with NCI-H1975 it was 4.70; in the assay with A549 it was under 4.40.
In the same order, the values of `COc1cc2ncnc(Nc3cccc(F)c3)c2cc1OCCCCC(=O)Nc1ccc(S(N)(=O)=O)cc1` are 4.52, under 4.40 and under 4.40.
In the same order, the values of `COc1cc2ncnc(Nc3ccc(OC(F)(F)F)cc3)c2cc1OCCCCC(=O)Nc1ccc(S(N)(=O)=O)cc1` are 4.65, 5.06 and under 4.40.
On the same counts, the results for `C#Cc1cccc(Nc2ncnc3ccc(NC(=S)NCCc4ccc(S(N)(=O)=O)cc4)cc23)c1` are 4.90, 4.90 and 5.41.
With `NS(=O)(=O)c1ccc(NC(=S)Nc2ccc3ncnc(Nc4ccc(OCc5cccc(F)c5)c(Cl)c4)c3c2)cc1`, the pIC50 is 4.53 with A-431, 4.99 with NCI-H1975 and under 4.40 in the assay with A549.
For the molecule `NS(=O)(=O)c1ccc(CCNC(=S)Nc2ccc3ncnc(Nc4ccc(Cl)c(C(F)(F)F)c4)c3c2)cc1`, the pIC50 is 4.67 in the assay with A-431, 4.40 in the assay on NCI-H1975 and 4.52 with A549.
In the case of `Cc1ccc(Nc2ncnc3ccc(NC(=S)Nc4ccc(S(N)(=O)=O)cc4)cc23)cc1`, the pIC50 in the assay with A-431 is 4.40; in the assay with NCI-H1975, 4.40; in the assay with A549, 5.55.
As for `NS(=O)(=O)c1ccc(CCNC(=S)Nc2ccc3ncnc(Nc4ccc(F)c(Br)c4)c3c2)cc1`, the pIC50 is 4.68 with A-431, 5.03 in the assay with NCI-H1975 and 5.27 with A549.
In the same order, the values of `Cc1ccc(Nc2ncnc3ccc(NC(=S)NCCc4ccc(S(N)(=O)=O)cc4)cc23)cc1` are 4.88, 4.99 and 4.83.
For `NS(=O)(=O)c1ccc(NC(=S)Nc2ccc3ncnc(Nc4cccc(Cl)c4F)c3c2)cc1`, the values for the pIC50 in the assay on A-431, with NCI-H1975 and with A549 were 4.88, 4.60 and under 4.40, respectively.
In the same order, the values of `NS(=O)(=O)c1ccc(CCNC(=S)Nc2ccc3ncnc(Nc4cccc(Cl)c4F)c3c2)cc1` are 5.38, 4.88 and 5.34.
Consider `NS(=O)(=O)c1ccc(CCNC(=S)Nc2ccc3ncnc(Nc4cccc(Cl)c4)c3c2)cc1`, for which the pIC50 in the assay on A-431 is 4.83; with NCI-H1975, 4.96; with A549, 5.56.
Regarding `NS(=O)(=O)c1ccc(NC(=S)Nc2ccc3ncnc(Nc4ccc(Cl)c(C(F)(F)F)c4)c3c2)cc1`, the pIC50 in the assay on A-431 is 4.74; with NCI-H1975, 4.93; in the assay with A549 it was 5.35.
In the same order, the values of `COc1cc2ncnc(Nc3ccc(Br)cc3)c2cc1OCCCCC(=O)Nc1ccc(S(N)(=O)=O)cc1` are 5.18, 4.63 and under 4.40.
On the same counts, the results for `Cc1cccc(Nc2ncnc3ccc(NC(=S)Nc4ccc(S(N)(=O)=O)cc4)cc23)c1` are 4.62, 4.45 and under 4.40.
As to `COc1cc2ncnc(Nc3ccc(F)c(Br)c3)c2cc1OCCCCC(=O)Nc1ccc(S(N)(=O)=O)cc1`, the values for the pIC50 in the assay on A-431, in the assay with NCI-H1975 and with A549 were 5.10, 4.50 and 4.80, respectively.
On the same counts, the results for `CCc1ccc(Nc2ncnc3ccc(NC(=S)Nc4ccc(S(N)(=O)=O)cc4)cc23)cc1` are 4.42, 4.41 and 4.61.
In the same order, the values of `COc1ccccc1Nc1ncnc2cc(OC)c(OCCCCC(=O)Nc3ccc(S(N)(=O)=O)cc3)cc12` are 4.62, 5.10 and 4.62.
On the same counts, the results for `C#Cc1cccc(Nc2ncnc3cc(OCCOC)c(OCCOC)cc23)c1` [ERLOTINIB] are 4.93, 4.88 and 4.78.
Consider `NS(=O)(=O)c1ccc(NC(=S)Nc2ccc3ncnc(Nc4ccc(C(F)(F)F)cc4)c3c2)cc1`, for which the pIC50 was 4.75 in the assay on A-431, 4.77 in the assay with NCI-H1975 and under 4.40 in the assay on A549.
As for `NS(=O)(=O)c1ccc(CCNC(=S)Nc2ccc3ncnc(Nc4ccc(C(F)(F)F)cc4)c3c2)cc1`, the pIC50 is 4.57 with A-431, 4.89 with NCI-H1975 and 4.49 with A549.
In the same order, the values of `NS(=O)(=O)c1ccc(NC(=S)Nc2ccc3ncnc(Nc4ccc(F)c(Br)c4)c3c2)cc1` are 4.74, 5.00 and under 4.40.
With `COc1cc2ncnc(Nc3ccc(C)cc3)c2cc1OCCCCC(=O)Nc1ccc(S(N)(=O)=O)cc1`, the pIC50 in the assay on A-431 is 4.45; in the assay with NCI-H1975, 4.72; in the assay with A549 it was under 4.40.
On the same counts, the results for `COc1cc2ncnc(Nc3ccc(C(F)(F)F)cc3)c2cc1OCCCCC(=O)Nc1ccc(S(N)(=O)=O)cc1` are 4.77, 4.92 and 4.83.
As to `CCc1ccc(Nc2ncnc3cc(OC)c(OCCCCC(=O)Nc4ccc(S(N)(=O)=O)cc4)cc23)cc1`, the values for the pIC50 in the assay on A-431, with NCI-H1975 and in the assay with A549 were 5.14, 4.99 and 4.92, respectively.
On the same counts, the results for `COc1cc2ncnc(Nc3ccc(Cl)cc3)c2cc1OCCCCC(=O)Nc1ccc(S(N)(=O)=O)cc1` are 5.15, 4.50 and under 4.40.
On the same counts, the results for `COc1cc2ncnc(Nc3ccc(F)cc3)c2cc1OCCCCC(=O)Nc1ccc(S(N)(=O)=O)cc1` are 4.73, under 4.40 and under 4.40.
On the same counts, the results for `COc1cc2ncnc(Nc3ccccc3)c2cc1OCCCCC(=O)Nc1ccc(S(N)(=O)=O)cc1` are 4.60, 4.85 and under 4.40.
In the case of `CCc1ccc(Nc2ncnc3ccc(NC(=S)NCCc4ccc(S(N)(=O)=O)cc4)cc23)cc1`, the pIC50 is 4.40 with A-431, 5.03 in the assay on NCI-H1975 and 4.78 in the assay on A549.
On the same counts, the results for `COc1cc2ncnc(Nc3cccc(C)c3)c2cc1OCCCCC(=O)Nc1ccc(S(N)(=O)=O)cc1` are 5.13, 4.49 and 4.80.
